≈ marks a conversion by molar mass, not a printed value. Where “and” joins values, the source holds several entries; their conditions need not be identical. Equal values may be shown once. Read-outs that look alike come from different tables or passages of the source.
Assays:
[1] = ABTS radical cation scavenging assay; format: biochemical; details: mean ± SD, n = 3
Description: The ABTS radical cation (ABTS·+) was prepared by reacting ABTS with potassium persulfate following the method previously described. The ABTS radical cation (ABTS·+) was prepared by mixing with 2.45 mM potassium persulfate and equal volumes of an ABTS solution (7 mM), and then, they were permitted to react in the darkness at room temperature for 12–16 h. Thereafter, the ABTS reagent was diluted with methyl alcohol until reaching an absorbance of 0.70 ± 0.02 units at 734 nm. In a 96-well microplate, ABTS reagent (190 μL in each well) and samples (10 μL in each well) were incubated at room temperature for 20 min. To determine the antioxidant capacity by the ABTS method, the experimental conditions and protocol were identical to those of the DPPH assay. The only difference was that the absorbance was measured at 734 nm.

[2] = DPPH free radical scavenging assay; format: biochemical; details: mean ± SD, n = 3
Description: The DPPH free radical scavenging assay was performed according to a previously reported method. A series of different concentrations of the tested samples and the positive control ascorbic acid were mixed with freshly prepared DPPH (0.2 mM) in a 96-well microplate with a total volume of 150 μL. After leaving the mixture to react in the dark for 30 min, its absorbance was determined at 517 nm. All of the wells with only samples were set as blanks to obtain an absorbance value, which was subtracted from the test sample readings. The percentage inhibition (%) for each sample was calculated by the following formula: (1) Inhibition %=Absblank−Abssamples/Absblank×100%, where Absblank and Abssamples correspond to the absorbance units (at 517 nm) of DPPH solutions incubated in the absence and presence of the tested samples.

PTP1B = molecular target: T1, PTP1B (Homo sapiens, UniProt P18031); test: PTP1B inhibitory assay (p-NPP substrate)
T1 sequence (P18031 1-321 limits assumed): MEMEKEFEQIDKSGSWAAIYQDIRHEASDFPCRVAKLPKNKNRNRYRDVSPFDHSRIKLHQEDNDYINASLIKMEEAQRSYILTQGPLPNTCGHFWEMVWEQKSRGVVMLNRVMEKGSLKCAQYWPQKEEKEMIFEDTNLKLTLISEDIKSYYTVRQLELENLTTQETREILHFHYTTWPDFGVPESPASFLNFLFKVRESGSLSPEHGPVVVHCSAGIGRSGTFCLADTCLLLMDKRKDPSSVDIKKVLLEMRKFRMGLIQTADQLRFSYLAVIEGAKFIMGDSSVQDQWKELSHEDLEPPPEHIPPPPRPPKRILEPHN
Description: PTP1B (10 μg/mL stock solution) was dissolved in 10 mM citrate buffer (pH 6.0), 1 mM dithiothreitol (DTT), and 1 mM N, N, N′, N′-ethylenediaminetetraacetate (EDTA). 20.0 μL PTP1B stock solution and 60 μL citrate buffer were added to each well of a 96-well plastic plate.

[3] = test system: LPS-stimulated NO release in RAW 264.7 cells; test: Nitrite (Griess) assay of LPS-stimulated NO release; format: cell-based
Description: The level of NO production was tested by measuring the nitrite level in the culture medium with the Griess method. Cells were seeded at a density of 2 × 10^4 cells per well in 96-well plates. […] A microplate reader was employed for the optical density measurement at 570 nm.

[4] = molecular target: α-Glucosidase (from Baker's yeast); test: α-Glucosidase inhibitory assay (p-NPG substrate); details: read-out: IC50 α-Glucosidase inhibitory effect; mean ± SD, n = 3
Description: The extract, fractions, and compounds were dissolved in 5% DMSO and then diluted with phosphate buffer. Briefly, 80 μL PBS, 20 μL of varying concentrations of sample solutions, and 20 μL α-glucosidase solution (1.3 U/mL) were mixed and incubated in 96-well plates at 37°C for 5 min. The reaction started when 20 μL p-nitrophenyl-α-D-glucopyranoside (2.5 mM) was added to the plate. The reaction mixture was incubated for 15 min at 37°C, and then, 80 μL Na2CO3 (0.2 M) was added to stop the reaction.

[5] = Mus musculus, RAW264.7, LPS (1 μg/mL)-stimulated RAW 264.7 cells, mean ± SD, n = 3, read-out: IC50 NO production anti-inflammatory effect

Row | Compound | IC50 [1] [µM] | IC50 [2] [µM] | IC50 (PTP1B) [µM] | IC50 [3, 5] | IC50 [4] [µM] | IC50 ABTS scavenging activity ([1]; extract and fractions) [µg/mL] | IC50 DPPH scavenging activity ([2]; extract and fractions) [µg/mL] | IC50 (PTP1B; read-out: IC50 PTP1B inhibitory effect, mean ± SD, n = 3) [µM] | IC50 ([3]; Mus musculus, RAW264.7, read-out: IC50 NO production anti-inflammatory effect) [µM] | IC50 ([3]; LPS (1 μg/mL)-stimulated RAW 264.7 cells, mean ± SD, n = 3, read-out: IC50 NO production anti-inflammatory effect) [µM]
1 | O=C1O[C@H]([C@@H](O)CO)C(O)=C1O [Ascorbic acid, reference compound] | 50.9 ± 1.25 | 35.1 ± 1.02 | – | – | – | 8.96 ± 0.22 (≈ 50.9 µM) | 6.18 ± 0.18 (≈ 35.1 µM) | – | – | –
2 | COc1cc(-c2oc3cc(O)cc(O)c3c(=O)c2O[C@@H]2O[C@H](CO)[C@@H](O)[C@H](O)[C@H]2O)ccc1O [Compound 11, isorhamnetin-3-O-β-D-glucoside] | 36.71 ± 0.33 | 21.8 ± 0.26 | – | – | > 100 | – | – | – | – | –
3 | COc1cc(-c2cc(=O)c3c(O)cc(O[C@@H]4O[C@H](CO)[C@@H](O)[C@H](O)[C@H]4O)cc3o2)cc(OC)c1O [Compound 10, tricin-7-O-β-D-glucoside] | 91.1 ± 1.1 | > 100 | – | – | > 100 | – | – | – | 65.8 ± 1.47 | –
4 | COc1cc([C@@H](O)[C@H](CO)Oc2c(OC)cc([C@@H]3OC[C@@H]4[C@H]3CO[C@H]4c3cc(OC)c(O)c(OC)c3)cc2OC)ccc1O [Compound 35, (7R,7′R,7^″R,8S,8′S,8^″S)-4′,4^″-dihydroxy-3,3′,3^″,5,5′-pentamethoxy-7,9′:7′,9-diepoxy-4,8^″-oxy-8,8′-sesquineolignan-7^″,9^″-diol] | 31.18 ± 0.24 | 65.9 ± 1.52 | 63.16 ± 0.3 | 26.2 ± 0.19 µM | 19.7 ± 0.21 | – | – | – | – | –
5 | COc1cc([C@H]2OC[C@H]3[C@@H]2CO[C@@H]3c2cc(OC)c(O)c(OC)c2)cc(OC)c1O [Compound 31, (+)-syringaresinol] | 23.7 ± 0.25 | 65.4 ± 1.48 | – | 48.98 ± 0.39 µM | 49.1 ± 1.1 | – | – | – | – | –
6 | C[C@@H]1O[C@@H](O[C@H]2C(=O)c3c(O)cc(O)cc3O[C@@H]2c2ccc(O)c(O)c2)[C@H](O)[C@H](O)[C@H]1O [Compound 12, astilbin] | 43.1 ± 0.29 | 46.46 ± 0.4 | > 100 | – | > 100 | – | – | – | – | –
7 | O=c1cc(-c2ccc(O)cc2)oc2c([C@@H]3O[C@H](CO)[C@@H](O)[C@H](O)[C@H]3O)c(O)cc(O)c12 [Compound 9, vitexin] | 85.04 ± 0.24 | 92.26 ± 0.32 | 30.6 ± 0.48 | – | 98.6 ± 1.2 | – | – | – | – | –
8 | COc1cc([C@@H]2OC[C@H]3C(=O)OC[C@H]32)ccc1O [Compound 27, salicifoliol] | 41.98 ± 0.33 | > 100 | – | 66.86 ± 0.51 µM | > 100 | – | – | – | – | –
9 | Oc1cc(O)c2c(c1)O[C@H](c1ccc(O)c(O)c1)[C@H](O)C2 [Compound 4, (-)-epicatechin] | 13.46 ± 0.09 | 32 ± 0.37 | 38.66 ± 0.21 | – | 24 ± 0.38 | – | – | – | – | –
10 | COc1cc(CCCO)cc(OC)c1OC(CO)CO [Compound 26, 2-[4-(3-hydroxy-propyl)-2,6-dimethoxyphenoxy]-propane-1,3-diol] | > 100 | > 100 | – | – | 56.52 ± 0.45 | – | – | – | – | –
11 | COc1cc(-c2cc(=O)c3c(O)cc(O)cc3o2)cc(OC)c1O [Compound 8, tricin] | 24.1 ± 0.32 | 61.25 ± 0.31 | > 100 | – | > 100 | – | – | – | – | –
12 | Oc1cc(O)c2c(c1)O[C@H](c1ccc(O)c(O)c1)[C@@H](O)C2 [Compound 3, (+)-catechin] | 11.29 ± 0.09 | 26.4 ± 0.39 | 91.78 ± 0.68 | – | 89 ± 1.95 | – | – | – | – | –
13 | COc1cc([C@@H](O)[C@H](CO)Oc2c(OC)cc(CCCO)cc2OC)ccc1O[C@@H]1O[C@H](CO)[C@@H](O)[C@H](O)[C@H]1O [Compound 24, erythro-(7R,8S)-7,9,9-trihydroxy-3,3,5-trimethoxy-8-O-4-neolignan-4-O-β-D-glucopyranoside] | > 100 | > 100 | > 100 | – | – | – | – | – | – | –
14 | (+)-pinoresinol [Compound 29] | 18.49 ± 0.09 | 77.4 ± 2.98 | – | – | 52.1 ± 0.93 | – | – | – | – | 69.94 ± 0.31
15 | O=C(O)c1ccc(O)c(O)c1 [Compound 38, protocatechuic acid] | 63.25 ± 0.51 | 33.1 ± 0.79 | 44.75 ± 0.12 | – | – | – | – | – | – | –

More lines, main results first:

Row | IC50 [1] [µM] | IC50 [2] [µM] | IC50 (PTP1B) [µM] | IC50 [3, 5] | IC50 [4] [µM] | IC50 ABTS scavenging activity ([1]; extract and fractions) [µg/mL] | IC50 DPPH scavenging activity ([2]; extract and fractions) [µg/mL] | IC50 (PTP1B; read-out: IC50 PTP1B inhibitory effect, mean ± SD, n = 3) [µM] | Compound | IC50 ([3]; Mus musculus, RAW264.7, read-out: IC50 NO production anti-inflammatory effect) [µM] | IC50 ([3]; LPS (1 μg/mL)-stimulated RAW 264.7 cells, mean ± SD, n = 3, read-out: IC50 NO production anti-inflammatory effect) [µM]
16 | 40.63 ± 0.23 | 96.4 ± 2.26 | 81.93 ± 0.78 | 46.2 ± 0.67 µM | 5.71 ± 0.17 | – | – | – | COc1cc([C@@H](O)[C@H](CO)Oc2ccc([C@@H]3OC[C@@H]4[C@H]3CO[C@H]4c3ccc(O)c(OC)c3)cc2OC)ccc1O [Compound 32] | – | –
17 | 68.2 ± 0.76 | > 100 | 90.06 ± 0.47 | 73.16 ± 0.34 µM | 82.12 ± 0.56 | – | – | – | COc1cc([C@H](O)[C@H](CO)Oc2ccc(CCCO[C@@H]3O[C@H](CO)[C@@H](O)[C@H](O)[C@H]3O)cc2OC)ccc1O [Compound 23, threo-(7R,8R)-4,7,9,9′-tetrahydroxy-3,3′-dimethoxy-8-O-4′-neolignan-9′-O-β-D-glucopyranoside] | – | –
18 | 88.32 ± 0.12 | > 100 | – | – | – | – | – | – | COc1cc(C(=O)O)ccc1O [Compound 37, vanillic acid] | – | –
19 | 24.6 ± 0.31 | 87.78 ± 0.74 | > 100 | 76.69 ± 0.51 µM | 88.62 ± 0.49 | – | – | – | COc1cc(C2Oc3c(OC)cc(CCCO)cc3C2CO)ccc1O [Compound 13, (7S,8R)-dihydrodehydrodiconiferyl alcohol] | – | –
20 | 25.58 ± 0.12 | 95.7 ± 2.44 | 26.75 ± 0.21 | 55.5 ± 1.85 µM | 34.4 ± 0.5 | – | – | – | COc1cc([C@H]2OC[C@H]3[C@@H]2CO[C@@H]3c2cc(OC)c(O)c(OC)c2)ccc1O [Compound 30, (+)-medioresinol] | – | –
21 | 20.4 ± 0.23 | > 100 | – | 14.8 ± 1.2 µM | > 100 | – | – | – | COc1cc([C@@H]2OC(=O)[C@@H]3[C@H]2CO[C@H]3c2ccc(O)c(OC)c2)ccc1O [Compound 28, 4-ketopinoresinol] | – | –
22 | > 100 | > 100 | > 100 | 36.7 ± 0.8 µM | > 100 | – | – | – | COc1cc(C2Oc3c(OC)cc(CCCO)cc3C2CO)ccc1OC1OC(CO)C(O)C(O)C1O [Compound 16, (7S,8R)-dihydrodehydrodiconiferyl alcohol-4-O-β-D-glucopyranoside] | – | –
23 | 33.4 ± 0.45 | 66.67 ± 0.52 | – | 47.4 ± 0.85 µM | 50.9 ± 1.78 | – | – | 62.1 ± 0.73 | COc1cc([C@@H](O)[C@H](CO)Oc2c(OC)cc([C@@H]3OC[C@@H]4[C@H]3CO[C@H]4c3ccc(O)c(OC)c3)cc2OC)ccc1O (single isomer, unassigned) [Compound 33] | – | –
24 | 83.21 ± 0.53 | 63.32 ± 0.41 | 63 ± 0.65 | – | – | – | – | – | COC(=O)c1ccc(O)c(O)c1 [Compound 42, protocatechuic acid methyl ester] | – | –
25 | 54.67 ± 0.34 | > 100 | 95.63 ± 0.47 | 43.6 ± 0.9 µM | 58.37 ± 0.44 | – | – | – | COc1cc([C@H](O)[C@H](CO)Oc2ccc(CCCO)cc2OC)ccc1O [Compound 19, threo-(7S,8S)-guaiacyl-glycerol-β-O-4′-dihydroconiferyl ether] | – | –
26 | 60.92 ± 0.46 | > 100 | 93.6 ± 1.07 | 53.16 ± 0.24 µM | 52.6 ± 1.33 | – | – | – | COc1cc([C@@H](O)[C@H](CO)Oc2ccc(CCCO)cc2OC)ccc1O [Compound 20, erythro-(7R,8S)-guaiacyl-glycerol-β-O-4′-dihydroconiferyl ether] | – | –
27 | – | – | – | 8.01 µg/mL and 22.4 µM | – | – | – | – | COc1ccc2c(c1)c(CC(=O)O)c(C)n2C(=O)c1ccc(Cl)cc1 [Indomethacin, reference compound] | – | –
28 | 76.06 ± 0.48 | > 100 | 91.1 ± 0.38 | – | – | – | – | – | COc1ccc(C(=O)O)cc1O [Compound 41, isovanillic acid] | – | –
29 | 33.49 ± 0.31 | > 100 | > 100 | 17.3 ± 0.6 µM | > 100 | – | – | – | COc1cc(C2Oc3c(OC)cc(CCCOC4OC(CO)C(O)C(O)C4O)cc3C2CO)ccc1O [Compound 17, (7S,8R)-dihydrodehydrodiconiferyl alcohol-9′-O-β-D-glucoside] | – | –
30 | 15 ± 0.11 | 43.4 ± 0.46 | 39.25 ± 0.14 | – | 62.5 ± 1.92 | – | – | – | Oc1ccc([C@H]2Oc3cc(O)cc(O)c3C[C@H]2O)cc1 [Compound 2, (-)-epiafzelechin] | – | –
31 | > 100 | > 100 | 24.75 ± 0.18 | 30 ± 0.57 µM | – | – | – | – | COc1cc(O)c2c(c1)C(=O)c1cc(C)cc(O)c1C2=O [Compound 45, physcion] | – | –
